Assay results from paper PMC12777510 (Chempluschem, 2025).
In brackets after ≈: the same amount, converted by molar mass. Read-outs that look alike come from different tables or passages of the source. *1 amine or outer side, *2 acyl side, *3 side chain or, on linkers, in order; H or OH if unused. Where a SMILES comes first, the peptide text is derived from it. [ ]: non-standard residue; d: D form. X2 = O=C([C@@H](Cc1cc(C(F)(F)F)c(O)c(C(F)(F)F)c1)N[*:1])[*:2]; Aminotetradecanoyl(3R) = CCCCCCCCCCC[C@H](CC(=O)[*:2])N[*:1]; dTyr(3-CF3) = N[C@H](Cc1ccc(O)c(C(F)(F)F)c1)C(=O)O; X1 = O=C(C[C@@H](CCCCCCCCCCC(F)(F)F)N[*:1])[*:2]

Legend:
Fusarium graminearum [1] = details: broth microdilution, RPMI 1640 pH 7, 96-well plates, 28 °C for 48 h, no agitation, visual read-out, lowest concentration with complete inhibition of growth; DMSO max 2.5% v/v; triplicate
Candida albicans [2] = details: for MIC C. albicans: 24 h, pH 7
Candida albicans [3] = assay: microbe, parasite or virus in culture; details: 24 h, pH 7, read-out: MIC C. albicans
Fusarium graminearum [4] = assay: microbe, parasite or virus in culture; details: 48 h, pH 7, read-out: MIC F. graminearum
[5] = HPLC retention times compared to parent iturin A2, result in words
[6] = 19F NMR samples in D2O containing Saboraud Dextrose Broth (30 g/L), 5% d6-DMSO added to avoid precipitation

Structure (SMILES): CCCCCCCCCCC[C@@H]1CC(=O)N[C@@H](CC(N)=O)C(=O)N[C@H](Cc2ccc(O)cc2)C(=O)N[C@H](CC(N)=O)C(=O)N[C@@H](CCC(N)=O)C(=O)N2CCC[C@H]2C(=O)N[C@H](CC(N)=O)C(=O)N[C@@H](CO)C(=O)N1 [Synthetic iturin A2, iturin A2, reference compound] (cyclo(N[dY][dN]QP[dN]S[Aminotetradecanoyl(3R)]))
- MIC F. graminearum (Fusarium graminearum [1]): 16 µM (≈ 16.7 µg/mL)
- MIC C. albicans (Candida albicans [2]): 64 µM (≈ 66.8 µg/mL)

Structure (SMILES): C[C@@H]1[C@H](O)[C@@H](C)/C=C/C=C/C=C/C=C/C=C/C=C/C=C/[C@H](O[C@@H]2O[C@H](C)[C@@H](O)[C@H](N)[C@@H]2O)C[C@@H]2O[C@](O)(C[C@@H](O)C[C@@H](O)[C@H](O)CC[C@@H](O)C[C@@H](O)CC(=O)O[C@H]1C)C[C@H](O)[C@H]2C(=O)O [Amphotericin B]
- MIC (Candida albicans [3]): 2 µM (≈ 1.85 µg/mL)
- MIC (Fusarium graminearum [4]): 4 µM (≈ 3.7 µg/mL)

Structure (SMILES): CCCCCCCCCCC[C@@H]1CC(=O)N[C@@H](CC(N)=O)C(=O)N[C@H](Cc2cc(C(F)(F)F)c(O)c(C(F)(F)F)c2)C(=O)N[C@H](CC(N)=O)C(=O)N[C@@H](CCC(N)=O)C(=O)N2CCC[C@H]2C(=O)N[C@H](CC(N)=O)C(=O)N[C@@H](CO)C(=O)N1 [Compound 11, di‐o‐CF3‐Tyr iturin A2] (cyclo(N[X2][dN]QP[dN]S[Aminotetradecanoyl(3R)]))
- MIC F. graminearum (Fusarium graminearum [1]): >128 µM
- MIC C. albicans (Candida albicans [2]): >128 µM
- relative lipophilicity (hydrophobicity) by HPLC retention, compared to the natural lipopeptide [5]: increased proportionally to the increase in fluorine content

Structure (SMILES): NC(=O)CC[C@@H]1NC(=O)[C@@H](CC(N)=O)NC(=O)[C@@H](Cc2ccc(O)cc2)NC(=O)[C@H](CC(N)=O)NC(=O)C[C@@H](CCCCCCCCCCC(F)(F)F)NC(=O)[C@H](CO)NC(=O)[C@@H](CC(N)=O)NC(=O)[C@@H]2CCCN2C1=O [Compound 9, ω‐CF3 iturin A2] (cyclo(N[dY][dN]QP[dN]S[X1]))
- MIC F. graminearum (Fusarium graminearum [1]): 64 µM (≈ 70.2 µg/mL)
- change in bioactivity against C. albicans compared to iturin A2 (Candida albicans [2]): completely retains the bioactivity
- MIC C. albicans (Candida albicans [2]): 64 µM (≈ 70.2 µg/mL)

Structure (SMILES): CCCCCCCCCCC[C@@H]1CC(=O)N[C@@H](CC(N)=O)C(=O)N[C@H](Cc2ccc(O)c(C(F)(F)F)c2)C(=O)N[C@H](CC(N)=O)C(=O)N[C@@H](CCC(N)=O)C(=O)N2CCC[C@H]2C(=O)N[C@H](CC(N)=O)C(=O)N[C@@H](CO)C(=O)N1 [Compound 10, o‐CF3‐Tyr iturin A2] (cyclo(N[dTyr(3-CF3)][dN]QP[dN]S[Aminotetradecanoyl(3R)]))
- MIC F. graminearum (Fusarium graminearum [1]): 128 µM (≈ 142 µg/mL)
- MIC C. albicans (Candida albicans [2]): 128 µM (≈ 142 µg/mL)
- relative lipophilicity (hydrophobicity) by HPLC retention, compared to the natural lipopeptide [5]: pronounced increase in lipophilicity
- relative lipophilicity (hydrophobicity) by HPLC retention, compared to the natural lipopeptide ([5]; listed as o‐CF3‐Tyr): increased proportionally to the increase in fluorine content
- aqueous solubility [6]: 50 µM (≈ 55.6 µg/mL)
